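Each compound was tested at five concentrations against cells in 96-well plates for 48 hours. Definition used: TGI = concentration required for complete inhibition of growth.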
Assays:
Assay in all cases: DTP human tumour cell line panel, 48 h
MCF7 breast = tested on: MCF7 breast
MOLT-4 leukemia = tested on: MOLT-4 leukemia
T-47D breast = tested on: T-47D breast
HCT-15 colon = tested on: HCT-15 colon
NCI-H23 lung = tested on: NCI-H23 lung
RPMI-8226 leukemia = tested on: RPMI-8226 leukemia
NCI-H522 lung = tested on: NCI-H522 lung
OVCAR-8 ovarian = tested on: OVCAR-8 ovarian
SF-295 CNS = tested on: SF-295 CNS
SK-MEL-2 melanoma = tested on: SK-MEL-2 melanoma
NCI-H226 lung = tested on: NCI-H226 lung
SK-MEL-5 melanoma = tested on: SK-MEL-5 melanoma
A498 renal = tested on: A498 renal
DU-145 prostate = tested on: DU-145 prostate
CAKI-1 renal = tested on: CAKI-1 renal
HS 578T breast = tested on: HS 578T breast
BT-549 breast = tested on: BT-549 breast
HCC-2998 colon = tested on: HCC-2998 colon
TK-10 renal = tested on: TK-10 renal
COLO 205 colon = tested on: COLO 205 colon
OVCAR-5 ovarian = tested on: OVCAR-5 ovarian
ACHN renal = tested on: ACHN renal
SN12C renal = tested on: SN12C renal
SF-268 CNS = tested on: SF-268 CNS
M14 melanoma = tested on: M14 melanoma
HOP-62 NSCLC = tested on: HOP-62 NSCLC
K-562 leukemia = tested on: K-562 leukemia
SW-620 colon = tested on: SW-620 colon
HOP-92 NSCLC = tested on: HOP-92 NSCLC
IGROV1 ovarian = tested on: IGROV1 ovarian
MDA-MB-435 = tested on: MDA-MB-435
HL-60(TB) leukemia = tested on: HL-60(TB) leukemia
KM12 colon = tested on: KM12 colon
SR leukemia = tested on: SR leukemia
U251 CNS = tested on: U251 CNS
HCT-116 colon = tested on: HCT-116 colon
SK-OV-3 ovarian = tested on: SK-OV-3 ovarian
MALME-3M melanoma = tested on: MALME-3M melanoma
A549 NSCLC = tested on: A549 NSCLC
NCI-H460 lung = tested on: NCI-H460 lung
SK-MEL-28 melanoma = tested on: SK-MEL-28 melanoma
RXF 393 renal = tested on: RXF 393 renal
786-0 renal = tested on: 786-0 renal
CCRF-CEM leukemia = tested on: CCRF-CEM leukemia
SNB-19 CNS = tested on: SNB-19 CNS
EKVX NSCLC = tested on: EKVX NSCLC
SF-539 CNS = tested on: SF-539 CNS
MDA-N = tested on: MDA-N
OVCAR-3 ovarian = tested on: OVCAR-3 ovarian
UACC-257 melanoma = tested on: UACC-257 melanoma
UACC-62 melanoma = tested on: UACC-62 melanoma
PC-3 prostate = tested on: PC-3 prostate
MDA-MB-231 breast = tested on: MDA-MB-231 breast
LOX IMVI melanoma = tested on: LOX IMVI melanoma
OVCAR-4 ovarian = tested on: OVCAR-4 ovarian
NCI/ADR-RES ovarian = tested on: NCI/ADR-RES ovarian
HT29 colon = tested on: HT29 colon
UO-31 renal = tested on: UO-31 renal

## O=C1c2ccc3cc(CCl)cc(O)c3c2C(=O)c2cccc(O)c21
MCF7 breast
  TGI: 2720 nM
MOLT-4 leukemia
  TGI: 6.75 µM
T-47D breast
  TGI: > 10 µM
HCT-15 colon
  TGI: > 10 µM
NCI-H23 lung
  TGI: > 10 µM
RPMI-8226 leukemia
  TGI: > 10 µM
NCI-H522 lung
  TGI: > 10 µM
OVCAR-8 ovarian
  TGI: 5.03 µM
SF-295 CNS
  TGI: > 10 µM
SK-MEL-2 melanoma
  TGI: > 10 µM
NCI-H226 lung
  TGI: > 10 µM
SK-MEL-5 melanoma
  TGI: 1980 nM
A498 renal
  TGI: > 10 µM
DU-145 prostate
  TGI: > 10 µM
CAKI-1 renal
  TGI: > 10 µM
HS 578T breast
  TGI: > 10 µM
BT-549 breast
  TGI: > 10 µM
HCC-2998 colon
  TGI: > 10 µM
TK-10 renal
  TGI: > 10 µM
COLO 205 colon
  TGI: 4.11 µM
OVCAR-5 ovarian
  TGI: > 10 µM
ACHN renal
  TGI: 7.4 µM
SN12C renal
  TGI: 7.26 µM
SF-268 CNS
  TGI: 9.18 µM
M14 melanoma
  TGI: 2.45 µM
HOP-62 NSCLC
  TGI: > 10 µM
K-562 leukemia
  TGI: > 10 µM
SW-620 colon
  TGI: 1000 nM
HOP-92 NSCLC
  TGI: > 10 µM
IGROV1 ovarian
  TGI: > 10 µM
MDA-MB-435
  TGI: 324 nM
HL-60(TB) leukemia
  TGI: 1.61 µM
KM12 colon
  TGI: > 10 µM
SR leukemia
  TGI: > 10 µM
U251 CNS
  TGI: > 10 µM
HCT-116 colon
  TGI: 4.18 µM
SK-OV-3 ovarian
  TGI: > 10 µM
MALME-3M melanoma
  TGI: 66.9 nM
A549 NSCLC
  TGI: > 10 µM
NCI-H460 lung
  TGI: > 10 µM
SK-MEL-28 melanoma
  TGI: 8.27 µM
RXF 393 renal
  TGI: 9.83 µM
786-0 renal
  TGI: > 10 µM
CCRF-CEM leukemia
  TGI: 5.16 µM
SNB-19 CNS
  TGI: > 10 µM
EKVX NSCLC
  TGI: > 10 µM
SF-539 CNS
  TGI: 6.42 µM
MDA-N
  TGI: 314 nM
OVCAR-3 ovarian
  TGI: 407 nM
UACC-257 melanoma
  TGI: 3.04 µM
UACC-62 melanoma
  TGI: 3.85 µM
PC-3 prostate
  TGI: > 10 µM
MDA-MB-231 breast
  TGI: 3.16 µM
LOX IMVI melanoma
  TGI: > 10 µM
OVCAR-4 ovarian
  TGI: > 10 µM
NCI/ADR-RES ovarian
  TGI: 5.67 µM

## CC(C)(C)C(=O)CC1(O)C=C(O)C(O)(CC(=O)C(C)(C)C)O1 (configuration not stated)
MCF7 breast
  TGI: > 100000 nM
MOLT-4 leukemia
  TGI: > 100 µM
T-47D breast
  TGI: > 100 µM
HCT-15 colon
  TGI: > 100 µM
NCI-H23 lung
  TGI: 88.7 µM
RPMI-8226 leukemia
  TGI: 69.7 µM
NCI-H522 lung
  TGI: 80 µM
OVCAR-8 ovarian
  TGI: > 100 µM
SF-295 CNS
  TGI: > 100 µM
SK-MEL-2 melanoma
  TGI: > 100 µM
NCI-H226 lung
  TGI: 56.6 µM
SK-MEL-5 melanoma
  TGI: > 100000 nM
A498 renal
  TGI: > 100 µM
HT29 colon
  TGI: > 100 µM
DU-145 prostate
  TGI: > 100 µM
CAKI-1 renal
  TGI: 67.6 µM
HS 578T breast
  TGI: > 100 µM
BT-549 breast
  TGI: > 100 µM
HCC-2998 colon
  TGI: > 100 µM
TK-10 renal
  TGI: > 100 µM
COLO 205 colon
  TGI: > 100 µM
OVCAR-5 ovarian
  TGI: > 100 µM
SN12C renal
  TGI: > 100 µM
SF-268 CNS
  TGI: > 100 µM
M14 melanoma
  TGI: 51.1 µM
HOP-62 NSCLC
  TGI: 64.7 µM
K-562 leukemia
  TGI: > 100 µM
HOP-92 NSCLC
  TGI: > 100 µM
IGROV1 ovarian
  TGI: 55.2 µM
MDA-MB-435
  TGI: > 100000 nM
HL-60(TB) leukemia
  TGI: 72.1 µM
KM12 colon
  TGI: > 100 µM
SR leukemia
  TGI: > 100 µM
U251 CNS
  TGI: > 100 µM
HCT-116 colon
  TGI: 55.3 µM
SK-OV-3 ovarian
  TGI: > 100 µM
MALME-3M melanoma
  TGI: > 100000 nM
A549 NSCLC
  TGI: > 100 µM
NCI-H460 lung
  TGI: > 100 µM
SK-MEL-28 melanoma
  TGI: > 100 µM
RXF 393 renal
  TGI: 45.1 µM
UO-31 renal
  TGI: > 100 µM
786-0 renal
  TGI: 34.5 µM
CCRF-CEM leukemia
  TGI: > 100 µM
SNB-19 CNS
  TGI: > 100 µM
EKVX NSCLC
  TGI: > 100 µM
SF-539 CNS
  TGI: 90.2 µM
MDA-N
  TGI: > 100000 nM
OVCAR-3 ovarian
  TGI: > 100000 nM
UACC-257 melanoma
  TGI: > 100 µM
UACC-62 melanoma
  TGI: 97.1 µM
PC-3 prostate
  TGI: > 100 µM
MDA-MB-231 breast
  TGI: > 100 µM
LOX IMVI melanoma
  TGI: > 100 µM
OVCAR-4 ovarian
  TGI: 64.1 µM
NCI/ADR-RES ovarian
  TGI: > 100 µM

Reference: PubChem BioAssay (NCI)
